Results reported in ChEMBL document CHEMBL1201862, “PubChem BioAssay data set” (2004).
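The compound was tested at five concentrations on cells cultured in 96-well plates, with a 48-hour exposure period. Here, GI50 denotes the concentration required for 50% inhibition of growth.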 The source made the active and inactive calls. Cut-off read from the data, not from the text of the source: active = GI50 up to about 1.1 µM and inactive = higher.

Legend:
Test in all cases: NCI anticancer screen, dose series, 48 h
DLD-1 = tested on: DLD-1
DMS-273 = tested on: DMS-273
HCT-15 = tested on: HCT-15
HL-60 = tested on: HL-60
KM-20L2 = tested on: KM-20L2
LXFL 529 = tested on: LXFL 529
M19-MEL = tested on: M19-MEL
Malme-3M = tested on: Malme-3M
NCI-H522 = tested on: NCI-H522
A549 = tested on: A549
BT-549 = tested on: BT-549
DU-145 = tested on: DU-145
Hs-578T = tested on: Hs-578T
MDA-MB-231 = tested on: MDA-MB-231
MDA-MB-435 = tested on: MDA-MB-435
MDA-N = tested on: MDA-N
PC-3 = tested on: PC-3
SF-539 = tested on: SF-539
SNB-19 = tested on: SNB-19
T47D = tested on: T47D

Compound | GI50 (DLD-1) | GI50 (DMS-273) | GI50 (HCT-15) | GI50 (HL-60) | GI50 (KM-20L2) | GI50 (LXFL 529) | GI50 (M19-MEL) | GI50 (Malme-3M) | GI50 (NCI-H522) | GI50 (A549) | GI50 (BT-549) | GI50 (DU-145) | GI50 (Hs-578T) | GI50 (MDA-MB-231) | GI50 (MDA-MB-435) | GI50 (MDA-N) | GI50 (PC-3) | GI50 (SF-539) | GI50 (SNB-19) | GI50 (T47D)
CN(C)C(=O)OC1C(=O)N(C)c2ccc(Cl)cc2C2(c3ccccc3)N1C2(Cl)Cl (stereo not given) | 55.1 µM (inactive) | 72.4 µM (inactive) | 60.4 µM | 29.4 µM (inactive) | 40 µM (inactive) | > 100 µM (inactive) | > 100 µM (inactive) | > 100 µM (inactive) | 46 µM (inactive) | – | – | – | – | – | – | – | – | – | – | –
CCc1cc(=O)n(/C(C)=C/c2ccccc2)n1C | – | – | – | – | – | – | – | – | – | > 100 µM (inactive) | > 100 µM (inactive) | > 100 µM (inactive) | > 100 µM (inactive) | > 100 µM (inactive) | > 100 µM (inactive) | > 100 µM (inactive) | > 100 µM (inactive) | > 100 µM (inactive) | > 100 µM (inactive) | > 100 µM (inactive)
